Assay results reported in US12590099B2, “Inhibitors of histone deacetylase useful for the treatment or prevention of HIV infection” (Merck Sharp & Dohme LLC, priority 2018, dated 2026).
Read-outs that look alike come from different tables or passages of the source.

How the values were obtained:
KARN cells (Jurkat 2C4) = experiment: cells; type: cell-based; conditions: Homo sapiens, Jurkat
Description: KARN cells (Jurkat 2C4) were licensed from the laboratory of Dr. John Karn, Case Western Reserve University, School of Medicine. […] An atmosphere of 5% CO2 and 90% humidity was used for all culture work.
Day 1: After the 3-4 day growth period, the cells were transferred from the T175 flask to a 50 ml conical tube and gently pelleted at 1000 rpm for 5 minutes. […] These flasks were returned to the incubator.
Day 2: Cell Preparation: The next day, the cells were transferred from each T175 flask to an individual 50 ml conical tube and gently pelleted at 1000 rpm for 5 minutes. The cells were gently resuspended in assay media (30 ml) and pelleted again. […] The cells were counted using the ViCell (Beckman Coulter) and diluted as necessary. […] The plates were covered and returned to the incubator prior to compound addition.
The reference compounds, DMSO and SAHA were then added to the compound plate. […] The final high concentration for SAHA and the test compounds in the assays was 40 μM. The final DMSO concentration in all wells was 0.4%. The minimal induction reference compound used was DMSO and the maximal induction reference compound used was SAHA (2 μM final concentration in the assay).
Day 3: The luciferase detection reagent was prepared by transferring the contents of one bottle of Steady-Glo buffer to one bottle of Steady-Glo aubstrate (Steady-Glo Luciferase Assay System, Promega, catalog number E2520), followed by gently mixing until the substrate was thoroughly dissolved and the solution was equilibrated to room temperature. […] The Steady-Glo Reagent was added to the plates (30 μl/well), which were then covered with a black lid and incubated for 10 minutes at room temperature. The plates were then read for luminescence on an Envision (Perkin Elmer) using the ultrasensitive mode (US LUM), […] and 384-well aperture. Luminescence counts in the DMSO reference wells were considered as 0% induction, while those in the 2 μM SAHA reference wells were considered as 100% induction. Dose response curves were plotted as test compound concentration (X-axis) vs. percent activation (Y-axis) using a 4-parameter fit based on the Levenberg-Marquardt algorithm.

HDAC6 = target: T1, HDAC6 (Homo sapiens, UniProt Q9UBN7); experiment: Human HDAC enzyme inhibitor Fluor-de-Lys assay, HDAC6; type: biochemical
T1 sequence (Q9UBN7 1-1215): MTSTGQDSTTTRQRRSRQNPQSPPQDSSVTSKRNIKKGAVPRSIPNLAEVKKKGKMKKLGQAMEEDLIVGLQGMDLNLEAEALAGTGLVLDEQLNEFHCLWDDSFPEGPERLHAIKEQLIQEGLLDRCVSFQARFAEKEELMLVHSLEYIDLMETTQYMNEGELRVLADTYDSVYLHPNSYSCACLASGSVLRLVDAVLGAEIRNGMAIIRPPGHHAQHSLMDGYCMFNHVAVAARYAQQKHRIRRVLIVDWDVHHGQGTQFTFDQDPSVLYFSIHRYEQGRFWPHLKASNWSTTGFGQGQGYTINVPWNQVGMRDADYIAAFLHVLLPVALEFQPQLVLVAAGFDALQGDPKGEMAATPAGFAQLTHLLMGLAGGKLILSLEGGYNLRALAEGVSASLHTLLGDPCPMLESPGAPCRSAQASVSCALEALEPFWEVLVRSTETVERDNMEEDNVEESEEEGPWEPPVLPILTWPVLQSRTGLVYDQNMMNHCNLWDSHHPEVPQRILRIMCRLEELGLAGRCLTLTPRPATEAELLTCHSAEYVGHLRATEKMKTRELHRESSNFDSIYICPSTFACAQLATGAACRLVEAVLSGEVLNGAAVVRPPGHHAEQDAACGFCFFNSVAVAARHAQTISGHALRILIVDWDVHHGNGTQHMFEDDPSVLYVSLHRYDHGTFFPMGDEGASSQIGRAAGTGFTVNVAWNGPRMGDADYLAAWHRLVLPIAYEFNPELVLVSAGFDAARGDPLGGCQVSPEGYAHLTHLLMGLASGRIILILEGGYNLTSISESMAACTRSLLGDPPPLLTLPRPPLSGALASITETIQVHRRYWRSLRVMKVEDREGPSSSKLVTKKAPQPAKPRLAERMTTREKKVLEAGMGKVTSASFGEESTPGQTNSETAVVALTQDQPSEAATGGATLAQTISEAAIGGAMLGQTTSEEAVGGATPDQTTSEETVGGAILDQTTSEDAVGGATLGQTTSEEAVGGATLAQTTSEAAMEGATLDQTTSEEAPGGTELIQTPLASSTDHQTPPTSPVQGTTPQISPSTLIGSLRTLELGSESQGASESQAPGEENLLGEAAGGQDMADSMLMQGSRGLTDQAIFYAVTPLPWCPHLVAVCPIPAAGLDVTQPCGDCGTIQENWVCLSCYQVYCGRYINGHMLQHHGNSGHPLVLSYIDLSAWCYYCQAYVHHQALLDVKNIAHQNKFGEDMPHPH
Description: (§1) Human HDAC Enzyme Inhibitor Fluor-De-Lys Assay
(§2) Recombinant human HDAC8 (BML-SE145-0100) and HDAC10 (BML-SE559-0050) enzymes, HDAC substrates BML-KI104 and BML-KI178, and HDAC developer solutions BML-KI105 and BML-KI176 were purchased from Enzo Life Sciences. […] HDAC inhibitor suberoylanilide hydroxamic acid (SAHA) was obtained from Indofine and trichostatin A (TSA) was obtained from Sigma-Aldrich.
(§3) The histone deacetylase activities of HDAC1, HDAC2, HDAC3, HDAC6, and HDAC8 were measured in modified FLUOR DE LYS assays in 384-well format. In this assay, HDAC enzymes are initially incubated with an ε-acetyl (or -trifluoroacetyl)-L-lysine-containing substrate with a C-terminal amide having aminomethylcoumarin as the amine component. HDACs cleave the ε-acetyl group, rendering the resulting product susceptible to AMC cleavage by trypsin. The released AMC is then detected by its fluorescence.
(§4) The HDAC3/SMRT assay employed buffer B, consisting of 20 mM HEPES, pH 8.0, 1 mM MgCl2, 50 mM NaCl, 2.7 mM KCl, 0.05% BSA, 0.005% Tween 20, and 10 μM IP4. […] The HDAC8 assay employed buffer D, consisting of 20 mM HEPES, pH 8.0, 1 mM MgCl2, 100 mM NaCl, 20 mM KCl, 0.10% n-octyl-β-D-glucoside (Anatrace) and 0.05% BSA. All steps were performed at room temperature (23° C.). The assay was performed by pre-incubating serial dilutions of test compounds with the target HDAC prior to initiation with substrate. Each compound was titrated in a 10-point dose response, using a 1:3 fold dilution scheme, with 0.15 ul of solution added by ECH0555 to the plate, followed by the addition of 20 μl of the appropriate HDAC isoform diluted in appropriate assay buffer. […] Final conditions used for each assay were: 1. HDAC 1, 0.3 nM total enzyme, 20 μM substrate BML-KI104; 2. […] HDAC 3/SMRT, 0.3 nM total enzyme, 20 μM substrate BML-KI104; 4. […] The reactions were stopped and developed by addition of 30 ul of HDAC developer solution containing a saturating level of HDAC inhibitor as follows: 1.

Recombinant human HDAC8 = target: T2, Recombinant human HDAC8 (Homo sapiens, UniProt Q9BY41); experiment: Human HDAC enzyme inhibitor Fluor-de-Lys assay, HDAC8; type: biochemical
T2 construct: purchased Enzo Life Sciences BML-SE145-0100
T2 sequence (Q9BY41 1-377): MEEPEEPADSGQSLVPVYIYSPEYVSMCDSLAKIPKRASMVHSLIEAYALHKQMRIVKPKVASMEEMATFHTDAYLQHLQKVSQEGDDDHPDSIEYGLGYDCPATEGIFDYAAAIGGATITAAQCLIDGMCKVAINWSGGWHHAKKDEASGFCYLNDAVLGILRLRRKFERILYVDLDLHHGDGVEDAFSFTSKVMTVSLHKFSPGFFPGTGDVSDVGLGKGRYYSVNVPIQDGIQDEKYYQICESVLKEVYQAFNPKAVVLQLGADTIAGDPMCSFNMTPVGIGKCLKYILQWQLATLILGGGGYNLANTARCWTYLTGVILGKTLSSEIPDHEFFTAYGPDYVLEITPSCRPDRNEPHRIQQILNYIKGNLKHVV
Description: as §1, §2, §3, §4

[1] = read-out: Karn EC50 (nM) 0.1% NHS, 0.1% normal human serum
[2] = read-out: Karn EC50 (nM) 5% NHS, 5% normal human serum

SMILES: CCC(=O)CCCCC[C@H](NC(=O)[C@H]1CC12CCN(C)CC2)c1ncc(-c2cccnc2OC)[nH]1 [Compound 102]
- EC50 (KARN cells (Jurkat 2C4); [1]): 290 nM
- EC50 (KARN cells (Jurkat 2C4); [2]): 301 nM
- IC50 (HDAC6): 1950 nM
- IC50 (Recombinant human HDAC8): 3260 nM

SMILES: CCC(=O)CCCCC[C@H](NC(=O)[C@H]1CC12CCN(CC)CC2)c1ncc(-c2cc3ccccc3nc2OC)o1 [Compound 124]
- EC50 (KARN cells (Jurkat 2C4); [1]): 111 nM
- EC50 (KARN cells (Jurkat 2C4); [2]): 151 nM
- IC50 (HDAC6): 137 nM
- IC50 (Recombinant human HDAC8): 16000 nM

SMILES: CCC(=O)CCCCC[C@H](NC(=O)[C@H]1CC12CCN(C)CC2)c1ncc(-c2cc3ncccc3nc2OC)[nH]1 [Compound 142]
- EC50 (KARN cells (Jurkat 2C4); [1]): 311 nM
- EC50 (KARN cells (Jurkat 2C4); [2]): 544 nM
- IC50 (HDAC6): 3670 nM
- IC50 (Recombinant human HDAC8): 5120 nM

SMILES: CCC(=O)CCCCC[C@H](NC(=O)[C@H]1CC12CCN(C)CC2)c1ncc(-c2cc3ccc(-c4ncco4)cc3nc2OC)[nH]1 [Compound 175, (1S)—N-[(1S)-1-{5-[2-methoxy-7-(1,3-oxazol-2-yl)quinolin-3-yl]-1H-imidazol-2-yl}-7-oxononyl]-6-methyl-6-azaspiro[2.5]octane-1-carboxamide]
- EC50 (KARN cells (Jurkat 2C4); [1]): 48 nM
- EC50 (KARN cells (Jurkat 2C4); [2]): 84 nM
- IC50 (HDAC6): > 150 nM
- IC50 (Recombinant human HDAC8): > 150 nM

SMILES: CCC(=O)CCCCC[C@H](NC(=O)[C@H]1CC12CCN(C)CC2)c1ncc(-c2cc3ccc(-n4cccn4)cc3nc2OC)[nH]1 [Compound 176, (1S)—N-[(1S)-1-{5-[2-methoxy-7-(1H-pyrazol-1-yl)quinolin-3-yl]-1H-imidazol-2-yl}-7-oxononyl]-6-methyl-6-azaspiro[2.5]octane-1-carboxamide]
- EC50 (KARN cells (Jurkat 2C4); [1]): 45 nM
- EC50 (KARN cells (Jurkat 2C4); [2]): 76 nM
- IC50 (HDAC6): > 1500 nM
- IC50 (Recombinant human HDAC8): > 4500 nM

SMILES: CCC(=O)CCCCC[C@H](NC(=O)[C@H]1CC12CCN(C)CC2)c1ncc(-c2cc3ccc(Cl)cc3nc2OC)[nH]1 [Compound 177]
- EC50 (KARN cells (Jurkat 2C4); [1]): 22 nM
- EC50 (KARN cells (Jurkat 2C4); [2]): 41 nM
- IC50 (HDAC6): 341 nM
- IC50 (Recombinant human HDAC8): 2560 nM

SMILES: CCC(=O)CCCCC[C@H](NC(=O)[C@H]1CC12CCN(CC)CC2)c1ncc(-c2cc3cccnc3cc2OC)[nH]1 [Compound 181]
- EC50 (KARN cells (Jurkat 2C4); [1]): 52 nM
- EC50 (KARN cells (Jurkat 2C4); [2]): 63 nM
- IC50 (HDAC6): 144 nM
- IC50 (Recombinant human HDAC8): 5250 nM

SMILES: CCC(=O)CCCCC[C@H](NC(=O)[C@H]1CC12CCN(CC)CC2)c1ncc(-c2ccc(OC)cc2OC)[nH]1 [Compound 183]
- EC50 (KARN cells (Jurkat 2C4); [1]): 58 nM
- EC50 (KARN cells (Jurkat 2C4); [2]): 93 nM
- IC50 (HDAC6): 898 nM
- IC50 (Recombinant human HDAC8): 10400 nM

SMILES: CCC(=O)CCCCC[C@H](NC(=O)[C@H]1CC12CCN(CC)CC2)c1ncc(-c2cc3nn(C)cc3cc2OC)[nH]1 [Compound 190]
- EC50 (KARN cells (Jurkat 2C4); [1]): 967 nM
- EC50 (KARN cells (Jurkat 2C4); [2]): 1450 nM
- IC50 (HDAC6): 562 nM
- IC50 (Recombinant human HDAC8): 3110 nM

SMILES: CCC(=O)CCCCC[C@H](NC(=O)[C@H]1CC12CCN(CC)CC2)c1ncc(-c2ccc(F)cc2OC)[nH]1 [Compound 197]
- EC50 (KARN cells (Jurkat 2C4); [1]): 369 nM
- EC50 (KARN cells (Jurkat 2C4); [2]): 538 nM
- IC50 (HDAC6): 3380 nM
- IC50 (Recombinant human HDAC8): 7540 nM

SMILES: CCN1CCC2(CC1)C[C@@H]2C(=O)N[C@@H](CCCCCC(=O)CC1CC1)c1ncc(-c2cccnc2OC)[nH]1 [Compound 202]
- EC50 (KARN cells (Jurkat 2C4); [1]): 210 nM
- EC50 (KARN cells (Jurkat 2C4); [2]): 501 nM
- IC50 (HDAC6): 34900 nM
- IC50 (Recombinant human HDAC8): 8780 nM

SMILES: CCC(=O)CCCCC[C@H](NC(=O)[C@H]1CC12CCN(CC)CC2)c1ncc(-c2ccc(C)cc2OC)[nH]1 [Compound 208]
- EC50 (KARN cells (Jurkat 2C4); [1]): 53 nM
- EC50 (KARN cells (Jurkat 2C4); [2]): 63 nM
- IC50 (HDAC6): 756 nM
- IC50 (Recombinant human HDAC8): 1450 nM

SMILES: CCC(=O)CCCCC[C@H](NC(=O)[C@H]1CC12CCN(CC)CC2)c1ncc(-c2cc3ccn(CC)c(=O)c3cc2OC)[nH]1 [Compound 245]
- EC50 (KARN cells (Jurkat 2C4); read-out: Karn EC50 (nM) 0.1% NHS, 0.1% normal human serum, luciferase induction, 100% = 2 μM SAHA): 18 nM
- EC50 (KARN cells (Jurkat 2C4); read-out: Karn EC50 (nM) 5% NHS, 5% normal human serum, luciferase induction, 100% = 2 μM SAHA): 22 nM
- IC50 (HDAC6; HDAC6, Fluor-de-Lys assay): 694 nM
- IC50 (Recombinant human HDAC8; recombinant human HDAC8, Fluor-de-Lys assay): 9010 nM
